Like-named read-outs stand apart in the source and are kept apart here. Each block holds one compound with its values, some of them ahead of it.
Key:
[1] = target: T1, human A2B adenosine receptors (Homo sapiens, UniProt P29275); test: Radioligand competitive binding, ADENOSINE A2B (HEK293), [3H]-DPCPX (Table 8); set-up: purchased Receptor Biology; host or cells: HEK 293; details: [3H]-DPCPX 30-40 nM
T1 sequence (P29275 1-332): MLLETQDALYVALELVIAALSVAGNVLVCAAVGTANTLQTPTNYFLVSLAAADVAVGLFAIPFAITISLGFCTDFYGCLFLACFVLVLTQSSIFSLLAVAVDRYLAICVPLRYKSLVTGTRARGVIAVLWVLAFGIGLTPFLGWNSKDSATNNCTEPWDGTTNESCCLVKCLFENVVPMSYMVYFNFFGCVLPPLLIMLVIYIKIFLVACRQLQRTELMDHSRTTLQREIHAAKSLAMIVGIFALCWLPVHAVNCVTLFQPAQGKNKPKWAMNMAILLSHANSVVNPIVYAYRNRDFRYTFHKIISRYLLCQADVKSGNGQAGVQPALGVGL
Method: Membranes (50 μg membrane protein), radioligands, and varying concentrations of competing ligands were incubated in triplicate in 0.1 mL buffer HE plus 2 units/mL adehosine, deaminase for 2 hours at 21° C. The radioligand used for competitive binding assays for human A2B adenosine receptors was [^3H]-8-cyclopentyl-1,3-dipropyxanthine ([^3H]-DPCPX, 30-40 nM) (NEN, Boston, Mass.). Nonspecific binding was measured in the presence of 10 μM 5′N-ethylcarboxamidoadenosine (NECA; from RBI-Sigma, Natick, Mass.). Binding assays were terminated by filtration over Whatman GF/C glass fiber filters using a BRANDEL cell harvester (Gaithersburg, Md.). The filters were rinsed three times with 3 to 4 mL ice-cold 10 mM Tris-HCl, pH 7.4 and 5 mM magnesium chloride (MgCl2) at 4° C. and were counted in a Wallac β-counter (Perkin Elmer, Boston, Mass.).
Competitive binding data were fit to a single site binding model and plotted using Prizm GraphPad. The Cheng-Prusoff equation KI=IC50/(1+[I]/KD) was used to calculate KI values from IC50 values, where KI is the affinity constant for the competing ligand, [I] is the concentration of the free radioligand, and KD is the affinity constant for the radioligand (Cheng and Prusoff 1973).

[2] = target: T2, recombinant human A3 adenosine receptors (Homo sapiens, UniProt P0DMS8); test: Radioligand binding, human A3 receptor ([125I]-AB-MECA), incl. one-point binding at 10 μM; details: read-out: Percent (%) Inhibition at 10 μM Antagonist, A3
T2 construct: expressed in transfected cells; host or cells: HEK 293
T2 sequence (P0DMS8 1-318): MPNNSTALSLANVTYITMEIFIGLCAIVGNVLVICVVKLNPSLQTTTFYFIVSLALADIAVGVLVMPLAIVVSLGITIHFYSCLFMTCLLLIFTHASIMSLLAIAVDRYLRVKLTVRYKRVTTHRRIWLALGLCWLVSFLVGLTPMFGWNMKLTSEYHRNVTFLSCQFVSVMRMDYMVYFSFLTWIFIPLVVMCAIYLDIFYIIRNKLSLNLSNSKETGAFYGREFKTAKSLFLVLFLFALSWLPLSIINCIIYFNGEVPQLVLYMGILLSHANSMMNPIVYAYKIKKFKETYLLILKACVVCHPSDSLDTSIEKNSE

[3] = tested on: open-chest, barbital-anesthetized dogs; test: Protocol I (pretreatment): 60 minutes of coronary artery occlusion and 3 hours of reperfusion in dogs
Method: (§2) The studies were performed in open-chest, barbital-anesthetized dogs instrumented to measure heart rate, blood pressure, left ventricular pressure, and regional myocardial blood flow (radioactive microspheres). A mechanical occluder was placed around a proximal portion of the left anterior descending coronary artery to produce ischemia and reperfusion. At the end of the experiments, infarct size was determined-by histochemical staining (patent blue dye and triphenyltetrazolium) and expressed as a percentage of the region at risk or as a percentage of the entire left ventricle.
In the pretreatment protocol (see FIG. 1, protocol I), the dogs were subjected to 60 minutes of coronary artery occlusion and 3 hours or reperfusion after which the hearts were removed and infarct size was assessed. […] All of the antagonists were administered at a dose of 1 mg/kg as an i.v. bolus followed by and infusion of 10 μg/kg/min continued until immediately before reperfusion (70 minutes total).

[4] = target: T3, recombinant canine A1 adenosine receptors (Canis lupus familiaris, UniProt P11616); test: Radioligand competition binding, canine A1 receptor (3H-CPX), transfected HEK 293 membranes
T3 construct: expressed in transfected cells
T3 sequence (P11616 1-326): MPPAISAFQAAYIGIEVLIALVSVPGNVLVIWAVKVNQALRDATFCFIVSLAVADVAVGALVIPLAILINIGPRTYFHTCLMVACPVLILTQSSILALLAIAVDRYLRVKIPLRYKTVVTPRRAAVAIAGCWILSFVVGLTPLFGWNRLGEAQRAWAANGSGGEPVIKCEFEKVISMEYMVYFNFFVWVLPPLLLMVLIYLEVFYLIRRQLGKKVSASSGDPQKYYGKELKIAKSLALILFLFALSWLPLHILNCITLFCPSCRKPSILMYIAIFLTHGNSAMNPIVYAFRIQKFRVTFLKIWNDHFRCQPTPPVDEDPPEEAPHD
Method: (§1) Membranes (40-70 μg membrane protein), radioligands, and varying concentrations of competing ligands were incubated in triplicate in 0.1 ml buffer HE plus 2 units/mL adenosine deaminase for 2.5 hours at 21° C. The radioligands used for competitive binding assays were: [^3H]-8-cyclopentyl-1,3-dipropyxanthine ([^3H]-DPCPX) (NEN, Boston, Mass.) for A1 and A2b adenosine receptors, [^3H]-4-(2-[7-amino-2-(furyl)(1,2,4)triazole(2,3-a)(1,3,5)triazin-5-ylaminoethyly)phenol ([^3H] ZM241385) for A2a adenosine receptors (Tocris, Bristol, UK), and [^125Iodine]-labeled N6-(4-aminobenzyl)-9-(5-(methylcarbonyl)-β-D-ribofuranosyl) adenine ([^125I]-AB-MECA) or [^3H]-R-N^6-phenylisopropyladenosine (H^3R]-R-PIA) for A3 adenosine receptors (both from NEN, Boston, Mass.). Nonspecific binding was measured in the presence of 10 μM 5′N ethylcarboxamidoadenosine (NECA, from RBI-Sigma, Natick, Mass.) for A1 and A2b receptors, or 10 μM xanthine amino congener (XAC, from RBI-Sigma, Natick, Mass.) for A2a receptors. Binding assays were terminated by filtration over Whatman GF/C glass fiber filters using a BRANDEL cell harvester (Gaithersburg, Md.).

[5] = tested on: open-chest, barbital-anesthetized dogs; test: Protocol II (preconditioning): four 5-minute occlusion/reperfusion cycles before 60-minute occlusion and 3 hours reperfusion in dogs; assay type: in vivo, dog; details: for Effect on the protective effects of ischemic preconditioning: 1 mg/kg i.v. bolus + 10 μg/kg/min
Method: Preconditioning was elicited by four 5-minute occlusion/5-minute reperfusion cycles produced 10 minutes before the 60-minute occlusion.

[6] = tested on: open-chest, barbital-anesthetized dogs; test: Protocol III (reperfusion): 60 minutes occlusion and 3 hours reperfusion, drug from 10 minutes before release of occlusion, dogs; assay type: in vivo, dog; details: for Infarct size expressed as a percentage of the risk region, in words: administration during the early phase of reperfusion
Method: as §2
In the reperfusion protocol (see FIG. 3, protocol III), the dogs were subjected to 60 minutes of coronary artery occlusion followed by three hours of reperfusion. […] The antagonists were administered at a dose of 1 mg/kg i.v. bolus followed by an infusion of 10 μg/kg/min for one hour.

[7] = target: T4, recombinant canine A2a adenosine receptors (Canis lupus familiaris, UniProt P11617); test: Radioligand competition binding, canine A2a receptor (3H-ZM 241385), transfected HEK 293 membranes
T4 construct: expressed in transfected cells
Method: Membranes (40-70 μg membrane protein), radioligands, and varying concentrations of competing ligands were incubated in triplicate in 0.1 ml buffer HE plus 2 units/mL adenosine deaminase for 2.5 hours at 21° C. […] Nonspecific binding was measured in the presence of 10 μM 5′N ethylcarboxamidoadenosine (NECA, from RBI-Sigma, Natick, Mass.) for A1 and A2b receptors, or 10 μM xanthine amino congener (XAC, from RBI-Sigma, Natick, Mass.) for A2a receptors. Binding assays were terminated by filtration over Whatman GF/C glass fiber filters using a BRANDEL cell harvester (Gaithersburg, Md.).

[8] = target: T5, recombinant canine A3 adenosine receptors (Canis lupus familiaris, UniProt Q28309); test: Radioligand competition binding, canine A3 receptor (R-PIA), transfected HEK 293 membranes; details: mean ± SEM, n = 3
T5 construct: expressed in transfected cells
T5 sequence (Q28309 1-314): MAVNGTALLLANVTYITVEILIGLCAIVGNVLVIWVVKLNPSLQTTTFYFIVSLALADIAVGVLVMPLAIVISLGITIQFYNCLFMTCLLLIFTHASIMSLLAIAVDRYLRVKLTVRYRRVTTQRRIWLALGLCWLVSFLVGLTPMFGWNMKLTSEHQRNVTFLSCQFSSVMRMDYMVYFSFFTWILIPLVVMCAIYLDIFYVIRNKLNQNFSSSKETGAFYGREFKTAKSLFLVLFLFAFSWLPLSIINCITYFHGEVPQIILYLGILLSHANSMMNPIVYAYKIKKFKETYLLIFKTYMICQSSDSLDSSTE
Method: as §1, with “Md.). The-filters were rinsed three times with 3-4 mL ice-cold 10 mM Tris-HCl, pH 7.4 and 5 mM magnesium chloride (MgCl2) at 4° C., and were counted in a Wallac β-counter (Perkin Elmer, Boston, Mass.).” for “Md.).”

T4 sequence (P11617 whole entry): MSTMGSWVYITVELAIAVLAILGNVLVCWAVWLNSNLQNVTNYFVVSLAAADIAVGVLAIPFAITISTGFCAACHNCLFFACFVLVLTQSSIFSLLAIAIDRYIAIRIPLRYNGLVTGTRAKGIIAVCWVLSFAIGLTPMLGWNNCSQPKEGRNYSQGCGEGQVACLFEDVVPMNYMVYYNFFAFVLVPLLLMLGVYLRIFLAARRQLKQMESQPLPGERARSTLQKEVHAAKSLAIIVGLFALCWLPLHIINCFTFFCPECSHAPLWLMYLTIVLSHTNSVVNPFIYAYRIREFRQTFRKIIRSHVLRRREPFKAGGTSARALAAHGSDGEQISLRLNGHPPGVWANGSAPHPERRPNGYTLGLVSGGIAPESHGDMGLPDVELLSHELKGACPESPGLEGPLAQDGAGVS

Ki [1]: 27 nM
SMILES: CCCn1c(=O)c2[nH]c(-c3ccc(C#N)cc3)c(O)c2n(CCC)c1=O [Compound 3]

Ki [1]: 47 nM
SMILES: CCCn1c(=O)c2[nH]c(C34CCCC(O)(CC3)CC4)nc2n(CCC)c1=O [Compound 6]

SMILES: CCCn1c(=O)c2[nH]c(C34CCC(CCC(=O)O)(CC3)CC4)nc2n(CCC)c1=O [Compound 7]
Ki [1]: 51.4 nM

Ki [1]: 14.6 nM
SMILES: CCCn1c(=O)c2[nH]c(C3C4CC5C(C4CCCN(C)C)C53)nc2n(CCC)c1=O (centres unmarked) [Compound 1]

Ki [1]: 127 nM
SMILES: CCCn1c(=O)c2nc(C34CCC(CCCC(=O)O)(CC3)CC4)[nH]c2n(CCC)c1=O [Compound 15]

Ki [1]: 55.2 nM
SMILES: CCCn1c(=O)c2[nH]c(C34CCC(CN)(CC3)CC4)nc2n(CCC)c1=O [Compound 8]

Ki [1]: 76.9 nM
SMILES: CCCn1c(=O)c2[nH]c(C34CCC(O)C(CC3)C4)nc2n(CCC)c1=O (centres unmarked) [Compound 9]

Ki [1]: 85.6 nM
SMILES: CCCn1c(=O)c2nc(C34CCC(CCC(=O)Nc5nnn[nH]5)(CC3)CC4)[nH]c2n(CCC)c1=O [Compound 10]

Ki [1]: 15.2 nM
SMILES: CCCn1c(=O)c2[nH]c(C34CCC(OCC(=O)O)(CC3)C4)nc2n(CCC)c1=O [Compound 2]

Ki [1]: 93 nM
SMILES: CCCn1c(=O)c2[nH]c(C3CC4CCC(C3)C4NCC(=O)OCC)nc2n(CCC)c1=O (centres unmarked) [Compound 11]

Ki [1]: 100 nM
SMILES: CCCn1c(=O)c2[nH]c(C34CCC(/C=C/C(=O)O)(CC3)CC4)nc2n(CCC)c1=O [Compound 12]

Ki [1]: 117 nM
SMILES: CCCn1c(=O)c2[nH]c(C34CCC(/C=C/C(=O)O)(CC3)OC4)nc2n(CCC)c1=O [Compound 13]

Ki [1]: 45.1 nM
SMILES: CCCn1c(=O)c2[nH]c(C34CCC(O[C@@H](C)C(=O)O)(CC3)CC4)nc2n(CCC)c1=O [Compound 5]

Ki [1]: 160 nM
SMILES: CCCn1c(=O)c2[nH]c(C34CCC(CCc5nnn[nH]5)(CC3)CC4)nc2n(CCC)c1=O [Compound 17]

Ki [1]: 168 nM
SMILES: CCCn1c(=O)c2[nH]c(C34CCCC(OCC(=O)O)(CC3)CC4)nc2n(CCC)c1=O [Compound 18]

Ki [1]: 39 nM
SMILES: CCCn1c(=O)c2[nH]c(C34CCC(CN(C)C)(CC3)CC4)nc2n(CCN)c1=O [Compound 4]

inhibition at 10 µM [2]: 40.6%
Ki ([4]; canine, mean ± SEM, n = 3, 3H-CPX, read-out: Ki, A1): 0.0358 ± 0.004 µM
Ki ([7]; canine, mean ± SEM, n = 3, 3H-ZM 241385, read-out: Ki, A2a): 2.82 µM
Ki [8]: 19.1 µM
SMILES: CCCn1c(=O)c2[nH]c([C@H]3C[C@@H]4C[C@H]3[C@H]3O[C@@H]43)nc2n(CCC)c1=O [BG 9719, 8-(2S-5,6-exo-epoxy-endo-norborn-2-yl)-1,3-dipropyl-3,7-dihydro-purine-2,6-dione]
Relationship between infarct size and transmural collateral blood flow compared to control group [3]: similar
Effect on the protective effects of ischemic preconditioning ([5]; Protocol II): did not block
Infarct size expressed as a percentage of the risk region, in words [6]: no protective effect

Ki [1]: 125 nM
SMILES: CCCn1c(=O)c2[nH]c(C34CCC(OCCC(=O)O)(CC3)C4)nc2n(CCC)c1=O [Compound 14]

SMILES: CCCn1c(=O)c2[nH]c(C3CCCC3)nc2n(CCC)c1=O [CPX, 8-Cyclopentyl-1,3-dipropyl-3,7-dihydro-purine-2,6-dione]
Relationship between infarct size and transmural collateral blood flow compared to control group [3]: shifted downward
Infarct size (percentage of risk region or of left ventricle) compared with control, in words ([3]; 1 mg/kg i.v. bolus + 10 μg/kg/min from 10 minutes before occlusion): significantly smaller
Infarct size reduction ([3]; 1 mg/kg i.v. bolus + 10 μg/kg/min from 10 minutes before occlusion, vs control): 51%
Ki [4]: 0.0181 ± 0.0044 µM
Addition to the protective effect of ischemic preconditioning ([5]; Protocol II): added to the protective effect
Relationship between infarct size and collateral blood flow compared to preconditioned control ([5]; Protocol II (preconditioning)): shifted downward further
Effect on the protective effects of ischemic preconditioning ([5]; Protocol II): did not block
Infarct size expressed as a percentage of the entire left ventricle, in words [6]: a significant reduction in infarct size was not observed
Relationship between infarct size and collateral blood flow compared to control group [6]: shifted downward
Reduction in infarct size (percentage of the risk region) ([6]; 1 mg/kg i.v. bolus + 10 μg/kg/min for one hour from 10 minutes before release of occlusion): 42%
Infarct size expressed as a percentage of the risk region, in words [6]: reduced significantly
Ki [7]: 0.162 ± 0.022 µM
Ki [8]: 1.96 µM

Ki [1]: 131 nM
SMILES: CCCn1c(=O)c2nc(C34CCC(C5=NOC(C(=O)O)C5)(CC3)CC4)[nH]c2n(CCC)c1=O (centres unmarked) [Compound 16]

Source: patent publication US20050203065A1, “Method of treating ischemia reperfusion injury using adenosine receptor antagonists” (priority 2002, published 2005)
